pEC50: −log10 of the molar value. A value given as a limit tells only on which side of the number the result lay.

The subject of one experiment is HeLa cells. Briefly: Necrosis assay. The class given is cell-based. The settings on record: Homo sapiens, HeLa, 0.5 h, read-out: HeLa necrosis EC50 range. Here is the method:
HeLa cells (ATCC CCL-002) were grown in minimal essential medium (Invitrogen catalog no. 42360) containing 10% fetal bovine serum, 100 IU/ml penicillin and 100 μg/ml streptomycin. 4,000-6,000 cells were seeded into 96-well black ViewPlates-plates, clear bottom, (Perkin Elmer) in 100 μl medium and incubated overnight. Compounds were dissolved and pre-diluted in DMSO in 96-well polypropylene plates (Greiner) in a concentration range of 15 μM to 600 μM. At the time of the experiment cell plates were placed on heating blocks at 37° C., medium was removed and 40 μl fresh, pre-warmed medium was added per well. Cells were incubated for 15 min before addition of compounds. In parallel, 3 μl of compounds were diluted with 197 μl growth medium on a Tecan freedom-EVO pipetting station using 250 μl/s pipetting speed, in order to ensure effective mixing of the highly concentrated compound solutions with the aqueous phase. These pre-dilution plates were then equilibrated on heating blocks at 37° C. for 10 min. 80 μl pre-diluted compound were transferred manually to the corresponding wells containing HeLa cells yielding compound concentrations of 10 μM to 400 μM. Control conditions were 1% DMSO in growth medium (100% viability) and 400 μM ingenol mebutate in growth medium (0% viability). Plates were incubated on the heating blocks at 37° C. for 30 min. At the end of the incubation 10 μl PrestoBlue reagent (Invitrogen) were added to each well, plates were sealed with black seal, followed by incubation at 37° C. for 10 min with gentle shaking (150 rpm). Subsequently, plates were placed at room temperature for 20-30 min. Plates were read immediately after on an Envision Fluorescence reader (Perkin Elmer) with excitation at 535 nm and emission at 630 nm. Test compound titration curves were fitted to a four-parameter sigmoidal curve after normalizing the effect of the test compound to the effect of the positive control (4 10^−4 M PEP0005/ingenol mebutate). AbsEC50 denotes the concentration of test compound producing 50% effect.

Experiment [1] relates to PMN's (polymorphonuclear leukocytes). Briefly: Neutrophil oxidative burst. The class given is cell-based. The following applies: Leukocyte, 40 min, read-out: Neutrophil oxidative burst Rel EC50 range, PMN from buffy coats, 40 min at RT, hydroethidine fluorescence; normalized to 5×10^−7 M PEP0005. The protocol:
PMN's (polymorphonuclear leukocytes) were isolated and purified from fresh buffy coats by sequential sedimentation, density centrifugation and lysis of contaminating erythrocytes. Buffy coats were incubated with 2% methocel for 30-45 min to differentially sediment red blood cells. The leukocyte-rich supernatant was transferred to lymphoprep tubes to remove mononuclear cells by density centrifugation (400×g, 30 min). The pellet was resuspended and any remaining erythrocytes lysed using 0.2% NaCl for 30 sec before restoring isotonicity by the addition of 1.2% NaCl. This step was repeated until the cell pellet appears relatively free of red blood cells. Cells were resuspended in DPBS (Dulbecco's Phosphate Buffered Saline) (w.o. Ca^2+, Mg^2+) and the concentration adjusted to 1.4×10^6 cells/ml in HBSS (Hanks Balanced Salt solution) (w Ca^2+, Mg^2±) containing 0.1% BSA (Bovine Serum Albumin) and 5 mM glucose just prior to assay initiation. Titrated reference and test compounds were pre-mixed with HE (Hydroethidine) (10 μM final assay concentration) before addition to 96-well plates containing 2.5×10^5 cells. Following 40 min incubation at RT, changes in the respiratory burst was estimated by measuring fluorescence at 579 nm (excitation: 485 nm) using an Envision plate reader.
Test compound titration curves were fitted to a four-parameter sigmoidal curve after normalizing the effect of the test compound to the effect of the positive control (5×10^−7 M PEP0005). Rel EC50 denotes the concentration of test compound producing an effect that is midway between the fitted top and bottom. Abs EC50 is the concentration of test compound that provokes a response corresponding to 50% of the maximal effect associated with the positive control (5×10^−7 M PEP0005).

A word on the pEC50: it is the EC50 on a negative log10 scale, so that one unit is a factor of ten. As for `CC1=C[C@]23C(=O)[C@@H](C=C(CO)[C@@H](O)[C@]2(O)[C@H]1OC(=O)c1ccnc2ccccc12)[C@H]1[C@@H](C[C@H]3C)C1(C)C` [Compound 513, Ingenol 3-(quinoline-4-carboxylate)], the pEC50 was over 3.82 in the experiment with HeLa cells and over 7.70 in experiment [1].
On the same counts, the results for `CC1=C[C@]23C(=O)[C@@H](C=C(CO)[C@@H](O)[C@]2(O)[C@H]1OC(=O)c1sc(=O)[nH]c1C)[C@H]1[C@@H](C[C@H]3C)C1(C)C` [Compound 562, Ingenol 3-(4-methyl-2-oxo-3H-thiazole-5-carboxylate)] are under 3.46 and 7.00 to 7.70.
On the same counts, the results for `CC1=C[C@]23C(=O)[C@@H](C=C(CO)[C@@H](O)[C@]2(O)[C@H]1OC(=O)[C@@H]1CCCN1c1ccccc1)[C@H]1[C@@H](C[C@H]3C)C1(C)C` [Compound 545, Ingenol 3-((2S)-1-phenylpyrrolidine-2-carboxylate)] are 3.46 to 3.82 and 7.00 to 7.70.
As for `CC1=C[C@]23C(=O)[C@@H](C=C(CO)[C@@H](O)[C@]2(O)[C@H]1OC(=O)N(C)C1CCN(C(=O)OC(C)(C)C)CC1)[C@H]1[C@@H](C[C@H]3C)C1(C)C` [Compound 742, Ingenol 3-(N-methyl-N—(N-(tert-butyloxycarbonyl)-4-piperidyl)-carbamate)], the pEC50 is 3.46 to 3.82 in the experiment with HeLa cells and 7.00 to 7.70 in experiment [1].
On the same counts, the results for `CCn1c(C)cc(C)c1C(=O)O[C@H]1C(C)=C[C@]23C(=O)[C@@H](C=C(CO)[C@@H](O)[C@]12O)[C@H]1[C@@H](C[C@H]3C)C1(C)C` [Compound 543, Ingenol 3-(1-ethyl-3,5-dimethylpyrrole-2-carboxylate)] are over 3.82 and over 7.70.
On the same counts, the results for `C=CCN(C)C(=O)O[C@H]1C(C)=C[C@]23C(=O)[C@@H](C=C(CO)[C@@H](O)[C@]12O)[C@H]1[C@@H](C[C@H]3C)C1(C)C` [Compound 750, Ingenol 3-(N-allyl-N-methyl-carbamate)] are under 3.46 and over 7.70.
For `CC1=C[C@]23C(=O)[C@@H](C=C(CO)[C@@H](O)[C@]2(O)[C@H]1OC(=O)c1c(C)nc2ccccn12)[C@H]1[C@@H](C[C@H]3C)C1(C)C` [Compound 535, Ingenol 3-(2-methylimidazo[1,2-a]pyridine-3-carboxylate)] the same measures were 3.46 to 3.82 and over 7.70.
Consider `CC1=C[C@]23C(=O)[C@@H](C=C(CO)[C@@H](O)[C@]2(O)[C@H]1OC(=O)c1cc(-c2ccccc2)on1)[C@H]1[C@@H](C[C@H]3C)C1(C)C` [Compound 511, Ingenol 3-(5-phenylisoxazole-3-carboxylate)], for which the pEC50 was over 3.82 with HeLa cells and 7.00 to 7.70 in experiment [1].
On the same counts, the results for `CC1=C[C@]23C(=O)[C@@H](C=C(CO)[C@@H](O)[C@]2(O)[C@H]1OC(=O)c1cncn1-c1ccccc1)[C@H]1[C@@H](C[C@H]3C)C1(C)C` [Compound 515, Ingenol 3-(3-phenylimidazole-4-carboxylate)] are over 3.82 and over 7.70.
As for `CC1=C[C@]23C(=O)[C@@H](C=C(CO)[C@@H](O)[C@]2(O)[C@H]1OC(=O)N1CCCC1C(F)(F)F)[C@H]1[C@@H](C[C@H]3C)C1(C)C` (some centres unmarked) [Compound 735, Ingenol 3-(2-trifluoromethyl-pyrrolidine-1-carboxylate)], the pEC50 in the experiment on HeLa cells was 3.46 to 3.82; in experiment [1], over 7.70.
For `CC1=C[C@]23C(=O)[C@@H](C=C(CO)[C@@H](O)[C@]2(O)[C@H]1OC(=O)N1CCC(=O)c2ccccc21)[C@H]1[C@@H](C[C@H]3C)C1(C)C` [Compound 725, Ingenol 3-(4-oxo-2,3-dihydroquinoline-1-carboxylate)] the same measures were 3.46 to 3.82 and over 7.70.
With `CC1=C[C@]23C(=O)[C@@H](C=C(CO)[C@@H](O)[C@]2(O)[C@H]1OC(=O)N(C)C(C)CC#N)[C@H]1[C@@H](C[C@H]3C)C1(C)C` (some centres unmarked) [Compound 715, Ingenol 3-(N-(2-cyano-1-methyl-ethyl)-N-methyl-carbamate)], the pEC50 in the experiment on HeLa cells was under 3.46; in experiment [1], under 7.00.
`CC1=C[C@]23C(=O)[C@@H](C=C(CO)[C@@H](O)[C@]2(O)[C@H]1OC(=O)c1nccc2ccccc12)[C@H]1[C@@H](C[C@H]3C)C1(C)C` [Compound 512, Ingenol 3-(isoquinoline-1-carboxylate)]: the pEC50 was over 3.82 with HeLa cells and 7.00 to 7.70 in experiment [1].
For the compound `CCNC(=O)O[C@H]1C(C)=C[C@]23C(=O)[C@@H](C=C(CO)[C@@H](O)[C@]12O)[C@H]1[C@@H](C[C@H]3C)C1(C)C` [Compound 701, Ingenol 3-(N-ethyl-carbamate)], in experiment [1], the pEC50 was 7.00 to 7.70.
Turning to `CC1=C[C@]23C(=O)[C@@H](C=C(CO)[C@@H](O)[C@]2(O)[C@H]1OC(=O)c1ncccc1Br)[C@H]1[C@@H](C[C@H]3C)C1(C)C` [Compound 524, Ingenol 3-(3-bromopyridine-2-carboxylate)], the pEC50 is 3.46 to 3.82 in the experiment with HeLa cells and 7.00 to 7.70 in experiment [1].
On the same counts, the results for `COc1ccccc1N(C)C(=O)O[C@H]1C(C)=C[C@]23C(=O)[C@@H](C=C(CO)[C@@H](O)[C@]12O)[C@H]1[C@@H](C[C@H]3C)C1(C)C` [Compound 731, Ingenol 3-(N-methyl-N-(2-methoxy-phenyl)-carbamate)] are 3.46 to 3.82 and 7.00 to 7.70.
For `CC1=C[C@]23C(=O)[C@@H](C=C(CO)[C@@H](O)[C@]2(O)[C@H]1OC(=O)N1CC(=O)Nc2ccccc21)[C@H]1[C@@H](C[C@H]3C)C1(C)C` [Compound 733, Ingenol 3-(3-oxo-2,4-dihydroquinoxaline-1-carboxylate)] the same measures were 3.46 to 3.82 and under 7.00.
With `CC1=C[C@]23C(=O)[C@@H](C=C(CO)[C@@H](O)[C@]2(O)[C@H]1OC(=O)N(C)C1CCC1)[C@H]1[C@@H](C[C@H]3C)C1(C)C` [Compound 749, Ingenol 3-(N-cyclobutyl-N-methyl-carbamate)], the pEC50 in the experiment on HeLa cells is under 3.46; in experiment [1], over 7.70.
As for `CC1=C[C@]23C(=O)[C@@H](C=C(CO)[C@@H](O)[C@]2(O)[C@H]1OC(=O)c1noc(C)c1C)[C@H]1[C@@H](C[C@H]3C)C1(C)C` [Compound 569, Ingenol 3-(4,5-dimethylisoxazole-3-carboxylate)], the pEC50 with HeLa cells is 3.46 to 3.82; in experiment [1], 7.00 to 7.70.
Turning to `CC1=C[C@]23C(=O)[C@@H](C=C(CO)[C@@H](O)[C@]2(O)[C@H]1OC(=O)N(C)c1ccc(F)cc1)[C@H]1[C@@H](C[C@H]3C)C1(C)C` [Compound 730, Ingenol 3-(N-(4-fluoro-phenyl)-N-methyl-carbamate)], the pEC50 in the experiment on HeLa cells was 3.46 to 3.82.
As to `C#CCN(C)C(=O)O[C@H]1C(C)=C[C@]23C(=O)[C@@H](C=C(CO)[C@@H](O)[C@]12O)[C@H]1[C@@H](C[C@H]3C)C1(C)C` [Compound 751, Ingenol 3-(N-methyl-N-prop-2-ynyl-carbamate)], the pEC50 in the experiment with HeLa cells was under 3.46; in experiment [1], 7.00 to 7.70.
With `CC1=C[C@]23C(=O)[C@@H](C=C(CO)[C@@H](O)[C@]2(O)[C@H]1OC(=O)C12CCC(C)(C(=O)O1)C2(C)C)[C@H]1[C@@H](C[C@H]3C)C1(C)C` [Compound 503, Ingenol 3-(1S-camphanate)], the pEC50 in experiment [1] is 7.00 to 7.70.

For the origin of these results see US9708286B2, “Ingenol-3-acylates III and ingenol-3-carbamates” (LEO Laboratories Limited, priority 2010, dated 2017).
